In patent US5599974A, “Aldehydic agents for allosteric modification of hemoglobin” (Center for Innovative Technology, priority 1994, dated 1997):

Biological target: T1, human hemoglobin (HbA) (Homo sapiens, UniProt P69905)
T1 construct: hemoglobin solution
Experiment: Oxygen equilibrium studies of hemoglobin solutions (Hem-O-Scan oxygen dissociation curves)
Type: biochemical
Settings: hemoglobin solution
Excerpt: In blood, hemoglobin is in equilibrium between two allosteric structures. In the "T" (for tense) state, hemoglobin is de-oxygenated. In the "R" (for relaxed) state, hemoglobin is oxygenated. An oxygen equilibrium curve can be scanned using well known equipment such as the Aminco™ Hem-o-scan to evaluate the affinity and degree of cooperativity (allosteric action) of hemoglobin. In the scan, the Y-axis plots the percent of hemoglobin oxygenation and the X-axis plots the partial pressure of oxygen in millimeters of mercury (mm Hg). If a horizontal line is drawn from the 50% oxygen saturation point to the scanned curve and a vertical line is drawn from the intersection point of the horizontal line with the curve to the partial pressure X-axis, a value commonly known as the P50 is determined. This is the pressure when the hemoglobin is 50% saturated with oxygen. By comparing the P50 value for treated hemoglobin to the P50 value for untreated normal adult human hemoglobin (HbA) under physiological conditions (i.e., 37° C., pH=7.4, and partial carbon dioxide pressure of 40 mm Hg), the degree of allosteric modification can be determined. When the P50 value for treated hemoglobin is lower than for HbA, a high oxygen affinity hemoglobin is indicated and the curve is said to be "left-shifted". Conversely, when the P50 value for treated hemoglobin is higher than for HbA, a low oxygen affinity hemoglobin is indicated and the curve is said to be "right-shifted".
In the oxygen equilibrium studies, the HbA was further purified by dialysis against pH 8.6. Tris buffer (50 mM, containing 40 mg EDTA/L) to remove any residual A2 hemoglobin. The pure HbA fraction was concentrated by using a Schleicher and Schuell colloidion bag apparatus, available from Schleicher and Schuell, Inc., with HEPES buffer (50 mM, pH 7.4) as the exchange buffer. The Hb concentration was determined by using the cyanmet method. The Hb concentration at this point was usually found to be around 35 g% (approximately 5.4 mM). Less than 5% methemoglobin was noted even after several days at 4° C. Oxygen dissociation curves were recorded on an AMINCO Hem-0-Scan oxygen dissociation analyzer available from Travenol Laboratories.
All compounds were dissolved in 50 mM HEPES buffer, pH 7.4, to give 20 mM of drug solution. The Hb (5.4 mM, in HEPES, pH 7.4) and the test compounds (20 mM) were mixed in 1:1 volume ratio (50μL of Hb+50μL of compound solution) to give final concentrations of 2.7 mM and 10mM, respectively (a molar ratio of test compound to hemoglobin of approximately 4:1). A control experiment was prepared by the addition of 50 μL of Hb to 50 μL of HEPES buffer. The mixtures were incubated at 4° C. for two hours before running the oxygen dissociation curves.

Row | Compound | direction of shift of the oxygen equilibrium curve
1 | O=Cc1ccc(OCC=CCOc2ccc(C=O)cc2C(=O)O)c(C(=O)O)c1 [TB18, 1,4-bis(2-carboxy-4-formylphenoxy)-2-butene] | right shift

Same assay, conditions: hemoglobin solution; Hb 2.7 mM, compound 10 mM (approx. 4:1), 50 mM HEPES pH 7.4, incubated at 4° C. for two hours

Row | Compound | P50 D (aver.) [mm Hg]
2 | 2-phenylethyloxy-5-formylbenzoic acid [TB32] | 18.0
3 | O=Cc1ccc(O)c(C(=O)O)c1 [MS1, 5-formylsalicyclic acid] | 21.0
4 | O=Cc1ccc(C(=O)O)cc1 [MS2, 4-carboxybenzaldehyde] | 21.0
5 | O=Cc1ccc(OCc2ccccc2COc2ccc(C=O)cc2C(=O)O)c(C(=O)O)c1 [TB5, α, α'-bis(2-carboxy-4-formylphenoxy)-o-xylene] | 31.0
6 | CC(=O)Oc1ccc(C=O)cc1C(=O)O [TB8, 5-formylaspirin] | 21.0
7 | O=Cc1ccc(OCc2cccc(COc3ccc(C=O)cc3C(=O)O)c2)c(C(=O)O)c1 [TB10, α,α'bis(2-carboxy-4-formylphenoxy)-m-xylene] | 26.0
8 | O=Cc1ccc(OCc2ccc(COc3ccc(C=O)cc3C(=O)O)cc2)c(C(=O)O)c1 [TB11, α,α'bis(2-carboxy-4-formylphenoxy)-p-xylene] | 24.0
9 | O=Cc1ccc(OCC=CCOc2ccc(C=O)cc2C(=O)O)c(C(=O)O)c1 [TB18, 1,4-bis(2-carboxy-4-formylphenoxy)-2-butene] | 40.0
10 | O=Cc1ccc(OCc2ccc(C(=O)O)cc2)c(C(=O)O)c1 [TB34, α-(2-carboxy-4-formylphenoxy)-p-toluic acid] | 14.0
11 | O=Cc1ccc(OCCCCOc2ccc(C(=O)O)cc2)c(C(=O)O)c1 [TB35] | 25
12 | O=Cc1ccc(OCCCOc2ccc(C=O)cc2C(=O)O)c(C(=O)O)c1 [TB36, 1,3-bis(2-carboxy-4-formylphenoxy)-propane] | 44.0
13 | O=Cc1ccc(OC(=O)/C=C/C(=O)Oc2ccc(C=O)cc2C(=O)O)c(C(=O)O)c1 [TB40, bis(2-carboxy-4-formylphenyl)-fumerate] | 14.0
14 | O=Cc1ccc(OCCCCCCOc2ccc(C=O)cc2C(=O)O)c(C(=O)O)c1 [TB42, 1,6-bis(2-carboxy-4-formylphenoxy)-hexane] | 39.0
15 | O=Cc1ccc(OC(=O)c2ccc(C(=O)Oc3ccc(C=O)cc3C(=O)O)cc2)c(C(=O)O)c1 [TB56, bis(2-carboxy-4-formylphenyl)-terephthalate] | 16.0
16 | O=Cc1ccc(OCCCCCOc2ccc(C=O)cc2C(=O)O)c(C(=O)O)c1 [TB57, 1,5-bis(2-carboxy-4-formylphenoxy)-pentane] | 33.0
17 | O=Cc1ccc(OCCCCCCCCOc2ccc(C=O)cc2C(=O)O)c(C(=O)O)c1 [TB58, 1,8-bis(2-carboxy-4-formylphenoxy)-octane] | 37.0
18 | O=Cc1ccc(OCOc2ccc(C=O)cc2C(=O)O)c(C(=O)O)c1 [TB62/45, bis(2-carboxy-4-formylphenoxy)-methane] | 51.0
19 | CC(CCCOc1ccc(C=O)cc1C(=O)O)Oc1ccc(C=O)cc1C(=O)O (stereo not drawn) [TB72, 1,4-bis(2-carboxy-4-formylphenoxy)-pentane] | 30.0
20 | O=Cc1ccc(OCCCCCCCCCCOc2ccc(C=O)cc2C(=O)O)c(C(=O)O)c1 [TB73, 1,10-bis(2-carboxy-4-formylphenoxy)-decane] | 33.0
21 | O=Cc1ccc(OC(=O)C(=O)Oc2ccc(C=O)cc2C(=O)O)c(C(=O)O)c1 [TB77, bis(2-carboxy-4-formylphenyl)-oxalate] | 19.5
22 | O=Cc1ccc(OC(=O)CCC(=O)Oc2ccc(C=O)cc2C(=O)O)c(C(=O)O)c1 [TB80, bis(2-carboxy-4-formylphenyl)-succinate] | 14.5

Same assay, conditions: hemoglobin solution; Hb 2.7 mM, compound 10 mM, 50 mM HEPES pH 7.4; positive = right shift

Row | Compound | ΔP50 (P50 D - P50 C) [mm Hg]
23 | 2-phenylethyloxy-5-formylbenzoic acid [TB32] | -2.0
24 | O=Cc1ccc(O)c(C(=O)O)c1 [MS1, 5-formylsalicyclic acid] | 1.0
25 | O=Cc1ccc(C(=O)O)cc1 [MS2, 4-carboxybenzaldehyde] | 2.0
26 | O=Cc1ccc(OCc2ccccc2COc2ccc(C=O)cc2C(=O)O)c(C(=O)O)c1 [TB5, α, α'-bis(2-carboxy-4-formylphenoxy)-o-xylene] | 9.5
27 | CC(=O)Oc1ccc(C=O)cc1C(=O)O [TB8, 5-formylaspirin] | -1.0
28 | O=Cc1ccc(OCc2cccc(COc3ccc(C=O)cc3C(=O)O)c2)c(C(=O)O)c1 [TB10, α,α'bis(2-carboxy-4-formylphenoxy)-m-xylene] | 4.5
29 | O=Cc1ccc(OCc2ccc(COc3ccc(C=O)cc3C(=O)O)cc2)c(C(=O)O)c1 [TB11, α,α'bis(2-carboxy-4-formylphenoxy)-p-xylene] | 2.5
30 | O=Cc1ccc(OCC=CCOc2ccc(C=O)cc2C(=O)O)c(C(=O)O)c1 [TB18, 1,4-bis(2-carboxy-4-formylphenoxy)-2-butene] | 18.0
31 | O=Cc1ccc(OCc2ccc(C(=O)O)cc2)c(C(=O)O)c1 [TB34, α-(2-carboxy-4-formylphenoxy)-p-toluic acid] | -6.0
32 | O=Cc1ccc(OCCCCOc2ccc(C(=O)O)cc2)c(C(=O)O)c1 [TB35] | 4
33 | O=Cc1ccc(OCCCOc2ccc(C=O)cc2C(=O)O)c(C(=O)O)c1 [TB36, 1,3-bis(2-carboxy-4-formylphenoxy)-propane] | 22.0
34 | O=Cc1ccc(OC(=O)/C=C/C(=O)Oc2ccc(C=O)cc2C(=O)O)c(C(=O)O)c1 [TB40, bis(2-carboxy-4-formylphenyl)-fumerate] | -6.0
35 | O=Cc1ccc(OCCCCCCOc2ccc(C=O)cc2C(=O)O)c(C(=O)O)c1 [TB42, 1,6-bis(2-carboxy-4-formylphenoxy)-hexane] | 17.0
36 | O=Cc1ccc(OC(=O)c2ccc(C(=O)Oc3ccc(C=O)cc3C(=O)O)cc2)c(C(=O)O)c1 [TB56, bis(2-carboxy-4-formylphenyl)-terephthalate] | -4.0
37 | O=Cc1ccc(OCCCCCOc2ccc(C=O)cc2C(=O)O)c(C(=O)O)c1 [TB57, 1,5-bis(2-carboxy-4-formylphenoxy)-pentane] | 11.0
38 | O=Cc1ccc(OCCCCCCCCOc2ccc(C=O)cc2C(=O)O)c(C(=O)O)c1 [TB58, 1,8-bis(2-carboxy-4-formylphenoxy)-octane] | 15.0
39 | O=Cc1ccc(OCOc2ccc(C=O)cc2C(=O)O)c(C(=O)O)c1 [TB62/45, bis(2-carboxy-4-formylphenoxy)-methane] | 29.0
40 | CC(CCCOc1ccc(C=O)cc1C(=O)O)Oc1ccc(C=O)cc1C(=O)O (stereo not drawn) [TB72, 1,4-bis(2-carboxy-4-formylphenoxy)-pentane] | 8.0
41 | O=Cc1ccc(OCCCCCCCCCCOc2ccc(C=O)cc2C(=O)O)c(C(=O)O)c1 [TB73, 1,10-bis(2-carboxy-4-formylphenoxy)-decane] | 11.0
42 | O=Cc1ccc(OC(=O)C(=O)Oc2ccc(C=O)cc2C(=O)O)c(C(=O)O)c1 [TB77, bis(2-carboxy-4-formylphenyl)-oxalate] | -1.5
43 | O=Cc1ccc(OC(=O)CCC(=O)Oc2ccc(C=O)cc2C(=O)O)c(C(=O)O)c1 [TB80, bis(2-carboxy-4-formylphenyl)-succinate] | -5.5

Tested on: whole blood
Experiment: Whole-blood studies: effect on the oxygen affinity of whole blood
Type: cell-based
Settings: heparinized whole blood mixed 1:1 with test compound solution, equilibrated 1 hour at 37° C.; P50 C 25.0

Row | Compound | P50 D (aver.) [mm Hg]
44 | O=Cc1ccc(OCC=CCOc2ccc(C=O)cc2C(=O)O)c(C(=O)O)c1 [TB18, 1,4-bis(2-carboxy-4-formylphenoxy)-2-butene] | 19.0

Same assay, conditions: whole blood

Row | Compound | direction of shift of the oxygen equilibrium curve
45 | O=Cc1ccc(OCC=CCOc2ccc(C=O)cc2C(=O)O)c(C(=O)O)c1 [TB18, 1,4-bis(2-carboxy-4-formylphenoxy)-2-butene] | left shift

Same assay, conditions: whole blood, 1 hour at 37° C.; P50 D - P50 C

Row | Compound | ΔP50 D [mm Hg]
46 | O=Cc1ccc(OCC=CCOc2ccc(C=O)cc2C(=O)O)c(C(=O)O)c1 [TB18, 1,4-bis(2-carboxy-4-formylphenoxy)-2-butene] | -6.0

Biological target: T2, HbA (Homo sapiens, UniProt P69905)
T2 construct: co-crystals with compounds
Experiment: X-ray diffraction analysis of HbA/drug complexes (difference electron-density maps)
Type: binding
Settings: HbA tetramer/drug molar ratio 1:5 (TB17 1:10), Schiff base reduced, deoxygenated crystals
Description: Reaction of the drug compounds with HbA, crystallization and X-ray data collection of the HbA/drug complexes were performed according to the procedures of Wireko et al., Proc. Natl. Acad. Sci. USA, 1991, 88, 2209, which is herein incorporated by reference, with some slight modifications. Freshly prepared solutions of the synthesized compounds in potassium phosphate buffer were incubated at oxy HbA tetramer/drug molar ratios of 1:5 or 1:10 for at least 24 hours. Sodium cyanoborohydrie in phosphate buffer was added in 10- to 50-fold molar excess of HbA tetramer to reduce the Schiff's base adduct for at least 24 hours. The deoxygenated HbA/compound complexes were set up for crystallizations following the procedures described in Perutz et al., Crys. Growth, 1968, 2, 54, which is herein incorporated by reference, with some slight modifications. X-ray quality crystals for all complexes were obtained after three to seven days. Crystals of TB19 (discussed below) grown with HbA incubated and reduced under deoxygenated conditions was also used for data collection.
X-ray diffraction data for the MS2 complex (discussed below) was collected using a Rigaku AFC5R rotating anode diffractometer to a resolution of 4Å. All hk±1 reflections and their Friedel pairs were collected. One crystal, dimensions 0.3 to 1.2 mm was used for collection. Diffraction data for the rest of the complexes were collected with a Rigaku AFC5R rotating anode diffractometer equipped with an R-axis IIC image plate system, all to a resolution of 1.94A. Crystals of linear dimensions 0.2 to 0.5 mm were used. Data reduction, structure solution and calculation of Fourier difference electron-density maps were as described in Wireko et al., Proc. Natl. Acad. Sci. USA, 1991, 88, 2209.
Models of the compounds created with MMOD and minimized with MM2 force field were fitted to the electron-density by using FRODO on an EVANS and SUTHERLAND PS390 graphic station.
X-ray diffraction analyses were used to study several of the new drug complexes including MS1, MS2, TB8, TB10, TB17, TB19, TB32, TB36, TB62, and TB63. The difference electron-density maps of all complexes discussed are that of the HbA tetramer/drug molar ratio of 1:5, except TB17 which is 1:10. All drug molecules contain at least two functionalities, an aldehyde and a carboxylate, common to all of them. […] The only exception was MS2 where only one of the carboxylate oxygens was involved in the salt bridge interaction. The above binding site, which is common to all of the complexes, will be referred to as the α-cleft binding site. Some of the above drug compounds have additional functional groups which are also involved in additional interaction with other HbA residues, including hydrogen bonding, van der Waals interaction, and a second covalent bonding.
All complexes have two molecules of the drug compounds bound at the above-mentioned α-cleft site and are related by the two fold noncrystallographic axis. These sites are further noted as the α1-cleft site (Val-1α1 binding site), and the α2-cleft site (Val-1α2 binding site). In all complexes, the electron density at the α2-cleft site were slightly bigger and better defined than the electron density at the α1-cleft site. In addition to the binding at the α-cleft site, some of the drug compounds also bind to other secondary sites, including other sites in the α-cleft water cavity, the β-cleft water cavity located at Val-1β, and the Hb polymer contact site located near the residues His-116β and His-117β.

Row | Compound | binding sites in HbA seen in the difference electron-density map
47 | O=Cc1ccc(O)c(C(=O)O)c1 [MS1, 5-formylsalicyclic acid] | four binding sites for MS1 in the central water cavity of HbA
48 | O=Cc1ccc(C(=O)O)cc1 [MS2, 4-carboxybenzaldehyde] | binding exclusively at the two symmetry-related α-cleft sites
49 | CC(=O)Oc1ccc(C=O)cc1C(=O)O [TB8, 5-formylaspirin] | binding of TB8 at the two symmetry-related α-cleft sites of Val-1α
50 | O=Cc1ccc(OCCCOc2ccc(C=O)cc2C(=O)O)c(C(=O)O)c1 [TB36, 1,3-bis(2-carboxy-4-formylphenoxy)-propane] | binding exclusively at the two symmetry-related α-cleft sites
51 | O=Cc1ccc(OCOc2ccc(C=O)cc2C(=O)O)c(C(=O)O)c1 [TB62/45, bis(2-carboxy-4-formylphenoxy)-methane] | binding exclusively at the two symmetry-related α-cleft sites
